Data on 8 compounds can be found in PubChem BioAssay (NCI).

Among the test systems are SNB-19 CNS; RXF 393 renal; A498 renal; SF-539 CNS; MDA-MB-435; SK-OV-3 ovarian; HS 578T breast; M14 melanoma; NCI-H226 lung; OVCAR-5 ovarian.
Assay in all cases: NCI tumour cell line growth inhibition, 48 h

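These data come from cells grown in 96-well plates and exposed to compound for 48 hours at five concentrations. The concentration for 50% growth inhibition is given as GI50. At the TGI there is no net growth.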 Some results are limits rather than exact numbers.

Turning to `Nc1ncc(-c2cccc(S(N)(=O)=O)c2)c2scc(-c3ccc(F)c(Cl)c3)c12`, the GI50 was 10.6 µM with SNB-19 CNS; 3.79 µM in the experiment on RXF 393 renal; 5.73 µM in the experiment with A498 renal; 5.27 µM in the experiment on SF-539 CNS; 4.68 µM in the experiment on MDA-MB-435; 5.14 µM in the experiment with SK-OV-3 ovarian. Also, the GI50 with HS 578T breast was 7.23 µM; with M14 melanoma, 7.54 µM; in the experiment on NCI-H226 lung, 5.71 µM; in the experiment on OVCAR-5 ovarian, 9.09 µM. The TGI was > 25 µM with SNB-19 CNS; 9.43 µM with RXF 393 renal; 15.4 µM in the experiment on A498 renal; 13.2 µM with SF-539 CNS; 10.1 µM with MDA-MB-435; > 17.6 µM with SK-OV-3 ovarian. Also, the TGI in the experiment with HS 578T breast is 22 µM; with M14 melanoma, 16.8 µM; in the experiment on NCI-H226 lung, 15.1 µM; in the experiment on OVCAR-5 ovarian, > 22.2 µM.
On to `CC(O)c1cc(C(=O)N[C@@H](C)Cn2ccc(-c3ccc(C#N)c(Cl)c3)n2)n[nH]1` (stereo not given in full), for which the GI50 is > 100 µM in the experiment with SNB-19 CNS; > 100 µM in the experiment with RXF 393 renal; 3.51 µM with A498 renal; > 100 µM with SF-539 CNS; 32.4 µM in the experiment on MDA-MB-435; > 100 µM in the experiment on SK-OV-3 ovarian. Moreover, the GI50 in the experiment on HS 578T breast was 62.7 µM; in the experiment on M14 melanoma, 32.8 µM; in the experiment on NCI-H226 lung, 58.5 µM; with OVCAR-5 ovarian it was > 100 µM. Besides, the TGI in the experiment with SNB-19 CNS is > 100 µM; with RXF 393 renal, > 100 µM; with A498 renal, 55.9 µM; with SF-539 CNS it was > 100 µM; in the experiment with MDA-MB-435, > 100 µM; in the experiment with SK-OV-3 ovarian, > 100 µM. Further, the TGI in the experiment with HS 578T breast, with M14 melanoma, in the experiment with NCI-H226 lung and with OVCAR-5 ovarian was > 100 µM each time.
`COc1cc(-c2csc(NC(=O)Nc3cc(Cl)cc(Cl)c3)n2)cc(OC)c1OC`: the GI50 in the experiment on SNB-19 CNS was 1.93 µM; in the experiment with RXF 393 renal, 1.73 µM; in the experiment on A498 renal it was 1.42 µM; in the experiment on SF-539 CNS, 1.99 µM; in the experiment on MDA-MB-435, 1.9 µM; in the experiment on SK-OV-3 ovarian, 1.86 µM. Also, the GI50 in the experiment on HS 578T breast is 1.94 µM; with M14 melanoma, 1.68 µM; with NCI-H226 lung, 1.96 µM; in the experiment on OVCAR-5 ovarian, 2.25 µM. The TGI with SNB-19 CNS was 4.03 µM; with RXF 393 renal, 3.76 µM; in the experiment on A498 renal, 3.1 µM; in the experiment with SF-539 CNS, 4.7 µM; with MDA-MB-435, 3.96 µM; in the experiment with SK-OV-3 ovarian it was 3.75 µM. The TGI was found to be 4.91 µM in the experiment with HS 578T breast, 3.15 µM with M14 melanoma, 4.38 µM in the experiment with NCI-H226 lung and 6.16 µM in the experiment with OVCAR-5 ovarian.
For `CC(=O)c1cc(O)c2ccccc2c1O`, the GI50 in the experiment with SNB-19 CNS is 46 µM; with RXF 393 renal it was 19.5 µM; in the experiment on A498 renal, 89.5 µM; with SF-539 CNS, 22.5 µM; in the experiment on MDA-MB-435 it was 14.5 µM; in the experiment with SK-OV-3 ovarian, > 100 µM. For the same compound, the GI50 was 39.7 µM in the experiment with HS 578T breast, 19.7 µM in the experiment with M14 melanoma, 17.5 µM in the experiment on NCI-H226 lung and 23.7 µM in the experiment with OVCAR-5 ovarian. Also, the TGI in the experiment with SNB-19 CNS is > 100 µM; in the experiment on RXF 393 renal, 33.8 µM; in the experiment with A498 renal, > 100 µM; in the experiment on SF-539 CNS, 40.6 µM; in the experiment on MDA-MB-435, 30.7 µM; in the experiment with SK-OV-3 ovarian, > 100 µM. The TGI in the experiment on HS 578T breast was > 100 µM; with M14 melanoma, 36.7 µM; in the experiment on NCI-H226 lung it was 33.2 µM; with OVCAR-5 ovarian, 43 µM.
Consider `CS(=O)(=O)N(c1cc(-c2ccc3ncnc(Nc4cccc(Cl)c4)c3c2)cnc1Cl)S(C)(=O)=O`, for which the GI50 was 0.936 µM in the experiment with SNB-19 CNS; 0.231 µM in the experiment on RXF 393 renal; 0.0685 µM in the experiment with A498 renal; 0.533 µM in the experiment on SF-539 CNS; 0.443 µM in the experiment on MDA-MB-435; 0.316 µM with SK-OV-3 ovarian. Besides, the GI50 with HS 578T breast is 0.236 µM; in the experiment with M14 melanoma, 0.598 µM; with NCI-H226 lung it was 1.04 µM; in the experiment with OVCAR-5 ovarian it was 0.181 µM. In addition, the TGI was found to be 7.89 µM with SNB-19 CNS; 0.91 µM in the experiment on RXF 393 renal; 0.388 µM in the experiment with A498 renal; 4.33 µM in the experiment with SF-539 CNS; 4.07 µM in the experiment with MDA-MB-435; 1.81 µM in the experiment on SK-OV-3 ovarian. For the same compound, the TGI in the experiment with HS 578T breast was determined as 6.08 µM; with M14 melanoma it was 4.4 µM; with NCI-H226 lung, 9.75 µM; with OVCAR-5 ovarian it was 6.55 µM.
In the case of `CCN(Cc1c(Cl)cccc1Cl)c1ccc(CO)c(Cl)c1`, the GI50 with SNB-19 CNS was 13.2 µM; in the experiment on RXF 393 renal, 7.16 µM; in the experiment on A498 renal, < 0.02 µM; with SF-539 CNS, 15.1 µM; in the experiment on MDA-MB-435, 9.22 µM; in the experiment on SK-OV-3 ovarian it was 9.84 µM. The GI50 in the experiment on HS 578T breast is 15.8 µM; with M14 melanoma it was 15.5 µM; with NCI-H226 lung, 0.0224 µM; in the experiment with OVCAR-5 ovarian, < 0.0284 µM. In addition, the TGI with SNB-19 CNS stood at 26.2 µM; in the experiment on RXF 393 renal, 24.7 µM; in the experiment with A498 renal, 0.0465 µM; in the experiment on SF-539 CNS, 28.6 µM; with MDA-MB-435 it was 22.4 µM; in the experiment on SK-OV-3 ovarian it was 22.3 µM. The TGI with HS 578T breast amounted to 37.9 µM; in the experiment with M14 melanoma it was 30.9 µM; in the experiment on NCI-H226 lung, 0.071 µM; with OVCAR-5 ovarian it was 0.24 µM.
In the case of `CC(=C/c1ccccc1)/C=C1/NC(=S)N(/C=C2\C(=O)Oc3ccccc3C2=O)C1=O`, the TGI is > 100 µM in the experiment with SNB-19 CNS; > 52.4 µM in the experiment on RXF 393 renal; > 100 µM in the experiment with A498 renal; > 100 µM with SF-539 CNS; > 100 µM with MDA-MB-435; > 100 µM with SK-OV-3 ovarian. In addition, the TGI in the experiment on HS 578T breast, in the experiment on M14 melanoma, in the experiment on NCI-H226 lung and in the experiment on OVCAR-5 ovarian was > 100 µM each time. In addition, the GI50 with SK-OV-3 ovarian and in the experiment with HS 578T breast was > 100 µM throughout.
For the compound `O=Nc1c(-c2c(O)[nH]c3ccc(Br)cc23)[nH]c2ccccc12`, the GI50 in the experiment with SNB-19 CNS was 7.99 µM; with RXF 393 renal it was 3.62 µM; in the experiment with A498 renal it was 3.7 µM; with SF-539 CNS, 2.62 µM; in the experiment on MDA-MB-435, 5.47 µM; in the experiment with SK-OV-3 ovarian it was 5.22 µM. In addition, the values for the GI50 in the experiment on HS 578T breast, in the experiment on NCI-H226 lung and in the experiment on OVCAR-5 ovarian were 3.03 µM, 3.89 µM and 5.14 µM, respectively. The TGI in the experiment with SNB-19 CNS was > 100 µM; in the experiment on RXF 393 renal, > 100 µM; in the experiment on A498 renal, 8.07 µM; in the experiment on SF-539 CNS it was 7.47 µM; in the experiment on MDA-MB-435 it was > 100 µM; in the experiment with SK-OV-3 ovarian, 77.3 µM. The TGI with HS 578T breast stood at 10.2 µM; with NCI-H226 lung it was 16.7 µM; in the experiment with OVCAR-5 ovarian, 16.9 µM.
